Peptide text beside a SMILES is read from it.
Experiments:
[1] = test system: Imiquimod-induced psoriasis in mice; assay: Imiquimod-induced psoriasis, ear histopathology; format: in vivo, mouse; conditions: 10 mg/kg PO daily
Protocol: Female BALB/cAnNCrl mice (Charles River, age 8 to 10 weeks at study start) have been assigned to the following groups (treatment schedule):
In this experiment, two positive controls have been utilized. Firstly, Prednisolone at 10 mg/kg (vehicle: 1% Hydroxyethylcellulose, 0.25% Polysorbate 80, and 0.05% Antifoam in purified water) has been dosed daily and orally (group “Prednisolone”). Secondly, Dexamethasone has been administered at 0.5 mg/kg (vehicle: sterile 0.9% NaCl) on days 1, 4 and 7 via intravenous route.
On day 8, animals have been sacrificed and the tissue (ear) has been fixed in 10% neutral buffered formalin. For histopathology hematoxylin-and-eosin-stained sections (cross cut) have been prepared and microscopic evaluation on the collected tissues from all animals has been performed. Methods and end-points for histopathology were similarly described in the van der Fits (2009) paper in that inflammation, epidermal hyperplasia, epidermal hyperkeratosis (rather than parakeratosis) were observed and recorded for severity grade, whereby the respective methodology from Van der Fits et al. (The Journal of Immunology 2009, 182, P. 5836-5845) is hereby incorporated by reference. Histopathology grading scores were excluded for either skin or ear in animals with secondary inflammatory processes (full thickness epidermal ulcers). Scores were averaged by group and standard deviation and statistical significance were calculated. […] Formalin-fixed, paraffin embedded skin from the dorsal surface of the mouse (BALB/c) was stained with hematoxylin and eosin (H&E) stain and assessed microscopically. An important difference from the above reference and to describe in more detail the observations of the present study: Hyperkeratosis can be defined specifically as orthokeratotic (no retained nuclei) or parakeratotic (retained nuclei). Either can occur normally in various anatomical locations and depending on species; however, both conditions are well defined in particular disease states. The van der Fits paper describes their Imiquimod (IMQ)-induced psoriasis model as causing parakeratotic hyperkeratosis similar to what is seen in the human condition, and that was a defined end-point for this study. However, the Danilenko et al. (Veterinary Pathology 2008 45:563) has shown that many rodent psoriasis models have orthokeratotic hyperkeratosis. […] The more general term ‘hyperkeratosis’ was used for grading end-points and describe in the text what type was seen (primarily orthokeratotic).
Microscopic Histopathology end-points were graded as such: […]

[2] = Stability (half-life) in human serum, UPLC-MS; conditions: human serum (10 and 50% in PBS; FIG. 5: 50%), 0.1 mM peptide
Protocol: The experiment was performed as described by Tugyi et al. (Proc Natl Acad Sci USA, 2005, 413-418). The remaining intact peptide was quantified by UPLC-MS.

[3] = test system: endotoxins-induced uveitis albino rat model; assay: Endotoxins-induced uveitis (EIU), single intravenous injection, clinical scoring; format: in vivo; parameters: key to clinical score (mean±SEM) / clinical score, median: clinical ocular inflammation score per eye, 0 to 4; conditions: sub-conjunctival, 20 Dg/eye; 24 h after LPS
Protocol: The anti-inflammatory potency of the JNK inhibitor of SEQ ID NO: 172 was tested in albino rats following intravenous administration (EIU/LPS model). The aim of this study was to determine the effects of single intravenous injections of SEQ ID NO: 172 (0.015, 0.18, and 1.80 mg/kg) on the inflammatory response in an endotoxins-induced uveitis albino rat model and to compare these affects to those obtained with prior art JNK inhibitor of SEQ ID NO: 197 (2 mg/kg). As a further control served phosphate sodic dexamethasone (“reference”) and vehicle (0.9% NaCl).
Sixty (60) male Lewis rats were randomly divided into six (6) groups often (10) animals each. 0.9% NaCl (vehicle, “control”), SEQ ID NO: 197 at 2 mg/kg and SEQ ID NO: 172 at three concentrations (1.80 mg/kg, 0.18 mg/kg and 0.015 mg/kg) were administered by intravenous injection just before EIU induction (on the day of induction). Accordingly, phosphate sodic dexamethasone (20 Dg/eye, 5 μl; “reference”) was administered by a single sub-conjunctival injection in both eyes just before EIU induction (on the day of induction). EIU was induced by footpad injection of lipopolysaccharide (LPS, 1 mg/kg). 24 hours after LPS injection, inflammatory response was evaluated by clinical scoring.
The intensity of clinical ocular inflammation was scored on a scale from 0 to 4 for each eye: […]

[4] = test system: established type II collagen arthritis in rats; assay: Chronic established type II collagen arthritis, daily IV 14 days; format: in vivo, rat
From the text: Rat collagen arthritis is an experimental model of polyarthritis that has been widely used for preclinical testing of numerous anti-arthritic agents that are either under preclinical or clinical investigation or are currently used as therapeutics in this disease. […] Animals were terminated on arthritis day 14.

[5] = test system: Endotoxin-Induced Uveitis (EIU) model in rats; assay: Action duration in endotoxin-induced uveitis (EIU), clinical scoring and PMN cells quantification; format: in vivo, rat; conditions: 2 mg/kg i.v. immediately before EIU induction
Protocol: […] (18) female Lewis rats (36 eyes) were randomly divided into 6 groups of 3 animals each. EIU was induced by a single footpad injection of 100 µl sterile pyrogen-free saline containing 200 µg of LPS (Lipopolysaccharides from Salmonella typhimurium, Sigma-Aldrich, France)(2 mg/ml).
Animals were treated 48 hours, 1 week, 2 weeks or 4 weeks before EIU induction by intravenous injection of the JNK inhibitor according to SEQ ID NO: 172 (“XG-104”) at a single dose of 1 mg/kg (dose volume 1 ml/kg) in the tail vein. Dexamethasone 2 mg/kg or vehicle (NaCl 0.9%) were injected intravenously immediately before EIU induction.
The effect of the JNK inhibitor according to SEQ ID NO: 172 (“XG-104”) on EIU was evaluated using clinical scoring and PMN cells quantification 24 hours after induction. Ocular examinations were performed by slit lamp at 24 hours i.e. at the clinical peak of the disease in this model. The intensity of clinical ocular inflammation was scored on a scale from 0 to 5 for each eye: • Grade 0: no inflammation, • Grade 1: presence of a minimal iris and conjunctival vasodilatation but without the observation of flare or cells in the anterior chamber (AC), • Grade 2: presence of moderate iris and conjunctival vessel dilation but without evident flare or cells in the AC, • Grade 3: presence of intense iris vessels dilation, flare and less than 10 cells per slit lamp, field in the AC, • Grade 4: presence of more severe clinical signs than grade 3, with more than 10 cells in the AC with or without the formation of a hypopyon, • Grade 5: presence of intense inflammatory reaction, fibrin formation in the AC and total seclusion of the pupil.
For histology, eighteen eyeballs (one per animal) were collected and fixed for 1 h at room temperature in phosphate buffered saline (PBS) containing 4% paraformaldehyde before being rinsed overnight in PBS. The next day, samples were embedded in optimal cutting temperature (OTC) compound (Tissue-Tek®, Sakura Finetek, Zoeterwoude, Netherland) and the optic nerve level using a cryostat (Leica CM 3050S, France) and mounted on super-frost slides for histology. After nuclei staining with DAPI (Sigma-Aldrich, France), sections were mounted in PBS/Glycerol (1/1) and observed by fluorescence photomicroscopy (FXA Microphot, Nikon, USA). Digitized micrographs were obtained usinga digital camera (Spot, BFI Optilas, France). PMN cells identified by the shape of their nuclei stained with DAPI, were quantified on histological sections. The analysis was performed with 2 different sections per eye at the optic nerve head level.
Twenty-four hours after LPS induction, clinical scores for the vehicle-treated rats were 4.6±0.2 (mean±SEM, n=8). Reduction was calculated as (grade in vehicle-treated eye—grade in test item treated eye)/(grade in vehicle-treated eye). A significant reduction (*p<0.05, **p<0.01) in the severity of the ocular inflammation was detected 24 hours after induction and intravenous treatment with the JNK inhibitor according to SEQ ID NO: 172 (“XG-104”) (1 mg/kg) administered 48 hours before EIU induction (mean score: 2.8±0.3), corresponding to a 40% (**) decrease of EIU scores compared with the score observed in vehicle group, 24 hours after induction and intravenous treatment with the JNK inhibitor according to SEQ ID NO: 172 (“XG-104”) (1 mg/kg) administered 1 week before EIU induction (mean score: 3.3±0.3), corresponding to a 27% (*) decrease of EIU scores compared with the score observed in vehicle group, and 24 hours after induction and intravenous treatment with the JNK inhibitor according to SEQ ID NO: 172 (“XG-104”) (1 mg/kg) administered 2 weeks before EIU induction (mean score: 3.0±0.2), corresponding to a 35% (**) decrease of EIU scores compared with the score observed in vehicle group. […]

[6] = test system: acute CYP-induced cystitis in female Sprague-Dawley rats; assay: Cyclophosphamide-induced acute cystitis, intravesical treatment, visceral pain and bladder inflammation; format: in vivo, rat; conditions: 50 mg/mL, i.ves.
Protocol: This preclinical model is well-used to test therapeutic approaches for the treatment of interstitial cystitis/painful bladder syndrome (IC/PBS).
Animals were acclimatized to the laboratory conditions for at least 3 days before the start of any experiments. The animals were allocated to the following four experimental groups (n=10 animals per group):
To induce acute cystitis, a single i.p. injection of CYP at a dose of 150 mg/kg in a final volume of 5 mL/kg was performed. Control rats received physiological saline under the same experimental conditions as CYP (final volume of 5 mL/kg, i.p.).
On the day of each experiment, weight of rats was recorded.
Standardized conditions including fixed time-of-day (a.m. to minimize the potential circadian variations in the behaviours responses) and single-experimenter testing of all animals were applied to minimize variability behavior-based pain testing. Visceral pain including allodynia and hyperalgesia was evaluated by applying to the lower abdomen, close to the urinary bladder, a set of 8 calibrated von Frey filaments of increasing forces (1, 2, 4, 6, 8, 10, 26 and 60 g) with an interstimulus interval of 5 seconds. Prior testing, the abdominal area designed for mechanical stimulation of each animal was shaved. Animals were then placed on a raised wire mesh floor under individual transparent Plexiglas box and acclimatized for at least 30 minutes before starting the von Frey test. Filaments were then applied 1-2 seconds through the mesh floor with enough strength to cause the filament to slightly bend. Each filament was tested 3 times. Care was taken to stimulate different areas within the lower abdominal region in the vicinity of the urinary bladder to avoid desensitization.
Nociceptive behaviors were scored for each animal and each filament as follows:
The study design is schematically shown in FIG. 50 A. Birefly, acute cystitis was induced by CYP injection (i.p.) at Do (as described above).
Urinary bladders were rapidly collected and cleaned from lipoid tissue. Urinary bladders were weighed, cut at the bladder neck as well as oedema and haemorrhage scoring was performed (see table below). Finally, wall thickness was measured using a digital caliper by placing the bladder wall between the two outside jaws.

[7] = vs disease controls, IV QD d1-14, Dex 0.05 mg/kg, SEQ ID NO: 172 up to 5 mg/kg

Question: Which results are given for `C[C@]12C=CC(=O)C=C1CC[C@@H]1[C@@H]2[C@@H](O)C[C@@]2(C)[C@H]1CC[C@]2(O)C(=O)CO` [Prednisolone, reference compound]?
Answer: epidermal hyperkeratosis of the ear (average grades) [1]: minimally decreased average grades; inflammation of the ear (average grade) vs vehicle-IMQ [1]: decreased inflammation of the ear; inflammation of the ear (average grade) vs vehicle-IMQ ([1]; listed as prednisolone): significant differences from the vehicle control group

Question: With `CC(C)C[C@H](NC(=O)[C@H](CC(N)=O)NC(=O)[C@H](CC(C)C)NC(=O)[C@@H](NC(=O)[C@@H](NC(=O)[C@@H]1CCCN1C(=O)[C@H](CCCNC(=N)N)NC(=O)[C@H](CCCCN)NC(=O)[C@@H]1CCCN1C(=O)[C@H](CCCNC(=N)N)NC(=O)[C@@H]1CCCN1C(=O)[C@@H]1CCCN1C(=O)[C@H](CCCNC(=N)N)NC(=O)[C@H](CCCNC(=N)N)NC(=O)[C@H](CCCNC(=N)N)NC(=O)[C@H](CCC(N)=O)NC(=O)[C@H](CCCNC(=N)N)NC(=O)[C@H](CCCNC(=N)N)NC(=O)[C@H](CCCCN)NC(=O)[C@H](CCCCN)NC(=O)[C@H](CCCNC(=N)N)NC(=O)CN)[C@@H](C)O)[C@@H](C)O)C(=O)N[C@@H](Cc1ccccc1)C(=O)N1CCC[C@H]1C(=O)N[C@@H](CCC(N)=O)C(=O)N[C@H](C(=O)N1CCC[C@H]1C(=O)N[C@@H](CCCNC(=N)N)C(=O)N[C@@H](CO)C(=O)N[C@@H](CCC(N)=O)C(=O)N[C@@H](CC(=O)O)C(N)=O)C(C)C` [SEQ ID NO: 196, reference compound] (H-GRKKRRQRRRPPRPKRPTTLNLFPQVPRSQD-NH2) as the compound, how does the “time until totally degraded into amino acids residues” value [2] read?
Answer: ≤ 6 h

Question: Which “clinical score (mean±SEM)” value [3] does the source give for `C[C@@H]1C[C@H]2[C@@H]3CCC4=CC(=O)C=C[C@]4(C)[C@@]3(F)[C@@H](O)C[C@]2(C)[C@@]1(O)C(=O)CO` [dexamethasone, reference compound] here?
Answer: 0.8±0.2

Question: And the “clinical score, median” value [3]?
Answer: 0.5

Question: What about the “ankle diameter AUC, reduction toward normal” value ([4]; 0.05 mg/kg IV QD d1-14) of the same compound?
Answer: 97%

Question: What about the “inhibition of body weight loss vs disease controls” value ([4]; 0.05 mg/kg IV QD d1-14) of the same compound?
Answer: 21%

Question: And the “final paw weights, reduction toward normal” value ([4]; Dex 0.05 mg/kg IV QD d1-14)?
Answer: 114%

Question: What about the “spleen weights relative to body weight” value [4, 7] of the same compound?
Answer: significantly (p<0.05 by ANOVA) reduced

Question: What about the “thymus weights relative to body weight” value [4, 7] of the same compound?
Answer: significantly (p<0.05 by ANOVA) reduced

Question: What about the “clinical score (mean±SEM)” value [5] of the same compound?
Answer: 1.4±0.2

Question: What about the “decrease of clinical scores vs vehicle group” value [5] of the same compound?
Answer: 69%

Question: With `CC(C)Cc1ccc(C(C)C(=O)O)cc1` (stereo not shown) [ibuprofen, reference compound] as the compound, how does the urine observation [6] read?
Answer: reddish urine was noticed for some animal

Question: What about the “haemorrhage scores vs vehicle” value ([6]; 24 h after CYP) of the same compound?
Answer: no significant change

Question: And the “nociceptive scores vs vehicle” value ([6]; 24 h after CYP)?
Answer: significant decrease

Question: And the “nociceptive threshold vs vehicle” value ([6]; 24 h after CYP)?
Answer: significantly increased

Question: And the “oedema scores vs vehicle” value ([6]; 24 h after CYP)?
Answer: significant decrease

Question: And the “urinary bladder wall thickness vs vehicle” value ([6]; 24 h after CYP)?
Answer: significant decrease

From US11331364B2, “Use for JNK inhibitor molecules for treatment of various diseases” (Xigen Inflammation Ltd., priority 2014, dated 2022)
